Assay results from patent US4532122A, “Anti-trypanosomal activity of platinum co-ordination compounds” (The United States of America as represented by the …, priority 1981, dated 1985).
Entries after “also recorded” stand apart in the source; their conditions may differ.

Key:
Trypanosoma rhodesiense [1] = assay: 30-day survival and cure of Trypanosoma rhodesiense-infected mice treated with cisplatin; assay type: in vivo; conditions: for cure, survival and damage on concurrent treatment: hydrated, trypanosome-infected mice, cisplatin and disulfiram or diethyl dithiocarbamate
Procedure: Laboratory animals of diverse sorts have been employed in studies with trypanosomes. […] This method has been reported in detail: L. Rane, D. S. Rane, and K. E. Kinnamon, Am. J. Trop. Med. Hyg., 25, 395-400 (1976).
(§1) Anti-trypanosomal activity reported in this invention was determined according to the procedure outlined in the article of L. Rane, et al entitled "Screening Large Numbers of Compounds in a Model Based on Mortality of Trypanosoma rhodesiense Infected Mice," The American Journal of Tropical Medicine and Hygiene, Volume 25, No. 3, pages 395-400 ([…]). To summarize, however, experiments were conducted with the Wellcome CT strain of Trypanosoma rhodesiense originally isolated in 1934. The test system is patterned after the one developed and employed in testing of compounds for activity against Plasmodium berghei malaria [see Osdene, et al, New Series of Potential Antimalarial Agents, J. Med. Chem., 10, 431-434 (1967)]. The test system is based on comparisons of responses to test compounds by ICR/HA Swiss mice infected with the strain as expressed in mean survival times compared with mean survival times of untreated controls.
Test mice (of similar age were females and 21 to 25 grams in weight) received an intraperitoneal injection of 0.5 ml of a 1:50,000 dilution of heparinized heart blood drawn from donor mice infected with Trypanosoma rhodesiense 3 days earlier.
Deaths prior to the fourth day (when untreated controls begin to die) were regarded as not related to the infection and were scored as "toxic deaths." Treated animals were kept under observation for 30 days. Parasitemias were monitored by thick blood film smears (taken from tail veins of the mice) every 2 days for the 30-day course of the experiment. Survivors at the end of 30 days were considered cured. […] In calculating mean survival times, toxic deaths and 30 day survivors were not included.
(§2) All groups included 10 mice except where indicated. Therapy was 3 mg/kg
trypanosomes and subsequently given intraperitoneally for number of days
indicated in first column. Disulfiram (250 mg/kgorally) was given exactly
physiologic saline given subcutaneously four times per day. Survival is
given as % survival 30 days following initial therapy.

Trypanosoma rhodesiense [2] = assay: Parasitemia in infected mice, monitored by thick blood film smears; assay type: in vivo
Procedure: as §1
By using a standard inoculum of 1×10^6 trypanosomes, it was possible to produce a uniform disease fatal to 100% of untreated animals within four to six days, with a mean survival time of 4.45±0.24 days. Test mice (of similar age were females and 21 to 25 grams in weight) received an intraperitoneal injection of 0.5 ml of a 1:50,000 dilution of heparinized heart blood drawn from donor mice infected with Trypanosoma rhodesiense 3 days earlier.
Deaths prior to the fourth day (when untreated controls begin to die) were regarded as not related to the infection and were scored as "toxic deaths." Treated animals were kept under observation for 30 days. Parasitemias were monitored by thick blood film smears (taken from tail veins of the mice) every 2 days for the 30-day course of the experiment. Survivors at the end of 30 days were considered cured. An increase of 100% in mean survival time over control animals was considered as a minimum effective response. In calculating mean survival times, toxic deaths and 30 day survivors were not included.
The therapeutic regimen was that described in Examples 1 through 3.

[3] = Histopathology of mice treated with cisplatin; assay type: in vivo
Description: Thus, histopathologic studies were requisite.
Two mice from each of these groups were necropsied at various times following cisplatin treatment. […] Tissues were fixed in 10% neutral buffered formalin, imbedded in paraffin, sectioned to 6-8μ and stained with hematoxylin and eosin.

Trypanosoma rhodesiense [4] = conditions: Kinnamon et al.; peanut oil vehicle; cited from earlier work
Trypanosoma rhodesiense [5] = assay: Subinoculation of tissues (blood, heart, brain) of cured mice into healthy recipient mice; assay type: in vivo, Trypanosoma rhodesiense in mice; conditions: donors: cisplatin with hydration plus disulfiram
Description: The considerable and complex nature of problems in various developing countries of tropical Africa have been worsened by the increasing incidents of trypanosomiasis. Drugs for the management of this highly fatal infection have been generally inadequate or/and highly toxic to the victim. The present invention relates to a novel means for alleviating the toxic effects of an agent useful in the treatment of highly fatal trypanosome infections in animals. […] However, cures have been achieved safely by concurrent hydration of the animals and oral dosing with disulfiram. This procedure was firmly established as affording parasitologic cures of the experimental animals by subinoculation of tissues (blood, brain, heart) into recipient mice from mice cured of trypanosomiasis in accordance with the method of this invention.
Some animals suffered relapses 6 to 14 days after the last doses. […] All survivors at 30 days were sacrificed, and tissues (blood; heart; brain) subinoculated into healthy mice. […] Thus, no latent trypanosomes had survived the therapy.

[6] = 30-day survival of uninfected (healthy) mice treated with cisplatin, with or without hydration and disulfiram; assay type: in vivo
Procedure: Ten animals were used in each of three test procedures for the three regimens of drug dosing. The test procedures included: no hydration of mice; hydration of mice; and hydration plus disulfiram administration to the animals.
as §2
indicated. Disulfiram (250 mg/kgorally) was given exactly four hours
Hydration was 3 ml of physiologic saline
given subcutaneously four times per day. Survival is given as % survival
30 days following initial therapy.
^a Average survival from four experiments with 10 mice per experiment

[7] = hydration + disulfiram, cisplatin 3 mg/kg/day, 6 days
[8] = with hydration, 3 mg/kg/day, 6 days
[9] = mice treated with cisplatin alone
[10] = no hydration, 3 mg/kg/day i.p., 7 days
[11] = with hydration, 3 mg/kg/day i.p., 7 days

Structure (SMILES): CCN(CC)C(=S)S [diethyl dithiocarbamate]
- cure, survival and damage on concurrent treatment (Trypanosoma rhodesiense [1]): effected cures of the infection with very good survival and little damage to test animals

Structure (SMILES): N.N.[Cl][Pt][Cl] [Cisplatin, cis-diamminedichloroplatinum (II)]
- clearance of trypanosomes from bloodstream (Trypanosoma rhodesiense [2]; cisplatin alone, 3 mg/kg/day, 5 days): failed to clear the bloodstream of trypanosomes
- clearance of trypanosomes from blood (Trypanosoma rhodesiense [2]; [7]): temporarily cleared of trypanosomes; also recorded: Blood of all mice was cleared of trypanosones
- relapse of parasitemia (Trypanosoma rhodesiense [2]; [7]): relapses of parasitemia occurred; also recorded: Relapse of parasitemia
- clearance of trypanosomes from blood (Trypanosoma rhodesiense [2]; no hydration, 3 mg/kg/day, 7 days): Blood of all mice was cleared of trypanosones
- time of relapse after the last doses (Trypanosoma rhodesiense [2]; some animals, hydration + disulfiram, cisplatin 6 daily doses): 6 to 14 days
- clearance of trypanosomes from blood (Trypanosoma rhodesiense [2]; [8]): Blood of all mice was cleared of trypanosones
- relapse of parasitemia (Trypanosoma rhodesiense [2]; [8]): Relapse of parasitemia
- clearance of trypanosomes from blood (Trypanosoma rhodesiense [2]; with hydration, 3 mg/kg/day, 7 days): Blood of all mice was cleared of trypanosones
- renal cortex findings ([3]; cisplatin alone, necropsied on day 18 or later): multifocal accumulations of lymphoplasmacytic inflammatory cells with areas of tubular regeneration
- early renal lesions [3, 9]: acute proximal and distal tubular necrosis
- lesions other than renal [3, 9]: colonic and jejunal enteritis, and interstitial pneumonia with edema and vascular congestion
- renal lesions (frequency) [3, 9]: highly common
- anti-trypanosomal effects in prior work (Trypanosoma rhodesiense [4]): anti-trypanosomal effects at dose levels which were unsuitably toxic to the test animals
- trypanosome infection in recipient mice after subinoculation of tissues of survivors (Trypanosoma rhodesiense [5]): did not produce the trypanosomiasis in the recipient mice; also recorded: No recipient mice developed trypanosome infection
- curative effects on Trypanosoma rhodesiense infections (Trypanosoma rhodesiense [1]; 3 mg/kg/day for 7 days): does exert curative effects
- cure, survival and damage on concurrent treatment (Trypanosoma rhodesiense [1]): effected cures of the infection with very good survival and little damage to test animals
- 30-Day survival of trypanosome-infected mice (Trypanosoma rhodesiense [1]; hydration + disulfiram (250 mg/kg orally), cisplatin 3 mg/kg/day i.p., 6 days, average of four experiments): 62.5%
- cure of Trypanosoma rhodesiense infection (Trypanosoma rhodesiense [1]; hydration plus disulfiram, cisplatin 3 mg/kg daily for seven days): effective in curing mice; also recorded: fully curative, and not merely palliative
- 30-Day survival of trypanosome-infected mice (Trypanosoma rhodesiense [1]; [10]): 0%
- 30-Day survival of trypanosome-infected mice (Trypanosoma rhodesiense [1]; [11]): 57%
- cure of Trypanosoma rhodesiense infection (Trypanosoma rhodesiense [1]; with hydration, 7-day regimen): effective in curing mice
- 30-Day survival ([6]; hydration + disulfiram (250 mg/kg orally), cisplatin 3 mg/kg/day i.p., 6 days): 100%
- 30-Day survival ([6]; hydration + disulfiram (250 mg/kg orally), cisplatin 3 mg/kg/day i.p., 7 days, average of four experiments): 100%
- mortality from cisplatin administration ([6]; hydration with or without disulfiram): ameliorated by hydration, with or without use of disulfiram
- 30-Day survival ([6]; no hydration, 3 mg/kg/day i.p., 5 days): 100%
- 30-Day survival ([6]; no hydration, 3 mg/kg/day i.p., 6 days): 10%
- 30-Day survival [6, 10]: 0%
- 30-Day survival ([6]; with hydration, 3 mg/kg/day i.p., 6 days): 100%
- 30-Day survival [6, 11]: 90%

Structure (SMILES): CCN(CC)C(=S)SSC(=S)N(CC)CC [Disulfiram, bis-(diethylthiocarbamoyl) disulfide]
- protection from toxic effects of cisplatin ([3]; oral disulfiram given with cisplatin): protected the kidneys and gastrointestinal tracts from the toxic effects
- anti-trypanosomal activity of disulfiram alone (Trypanosoma rhodesiense [1]; disulfiram alone, model test system): lack anti-trypanosomal activity
- cure, survival and damage on concurrent treatment (Trypanosoma rhodesiense [1]): effected cures of the infection with very good survival and little damage to test animals
